Ends that are not written are not given here.
Legend:
holo Alexa-CaM [1] = target: T1, holo Alexa-CaM (Homo sapiens, UniProt P0DP23, T111W/T35C); assay type: binding; settings: 2 mM EDTA, stopped-flow
holo Alexa-CaM [2] = target: T1, holo Alexa-CaM; experiment: Apparent Kd calculated as koff/kon; assay type: binding
holo Alexa-CaM [3] = target: T1, holo Alexa-CaM; experiment: Stopped-flow association kinetics of NOS target peptides with holo Alexa-CaM; assay type: binding; settings: pH 8
[4] = cited from earlier work; for rate of electron transfer to heme from FMN: ref [49]; for interdomain electron transfer FMN to heme: laser flash photolysis, in the presence of CaM, ref [50], [51]
holo CaM = holo CaM to immobilized target peptide, ref [21]; cited from earlier work

Molecule: CC[C@H](C)[C@H](NC(=O)[C@H](CCCCN)NC(=O)[C@@H](NC(=O)[C@H](C)NC(=O)[C@H](CC(N)=O)NC(=O)[C@H](C)NC(=O)[C@@H](NC(=O)[C@H](CCC(=O)O)NC(=O)[C@H](CCCCN)NC(=O)[C@H](Cc1ccccc1)NC(=O)[C@@H](NC(=O)[C@H](CCCCN)NC(=O)[C@H](CCCCN)NC(=O)[C@@H](N)CCCNC(=N)N)[C@@H](C)O)C(C)C)C(C)C)C(=O)N[C@@H](CO)C(=O)N[C@@H](C)C(=O)N[C@@H](CO)C(=O)N[C@@H](CC(C)C)C(=O)N[C@@H](CCSC)C(=O)NCC(=O)O [eNOS492–511]
- fast phase, share of overall FW110 increase (holo Alexa-CaM [1]): 83%

Molecule: RRAIGFKKLAEAVKFSAKLMGGAM [nNOS726–749]
- Kd (holo Alexa-CaM [2]): 5.6 nM
- fast phase, share of overall FW110 increase (holo Alexa-CaM [1]): 81%
- kon (holo Alexa-CaM [3]): 6.6e+08 M⁻¹ s⁻¹

Molecule: eNOS: endothelial NOS
- rate of electron transfer to heme from FMN [4]: 2 to 5 s⁻¹

Molecule: human iNOS: human inducible NOS
- interdomain electron transfer FMN to heme [4]: 34 s⁻¹

Molecule: iNOS: inducible NOS
- rate of electron transfer to heme from FMN [4]: 11 s⁻¹

Molecule: nNOS725–750: immobilized nNOS target peptide of previous SPR study (NGTPTKRRAIGFKKLAEAVKFSAKLM; UniProt P29475 725-750, looked up, fragment)
- kon (binding rate by SPR) (holo CaM): 158000 M⁻¹ s⁻¹

Molecule: rat nNOS: rat neuronal NOS in the presence of CaM
- interdomain electron transfer FMN to heme [4]: 36 s⁻¹

B1: nNOS: neuronal NOS (protein, UniProt P29475 1-1434, looked up)
Nitric oxide synthase 1: MEDHMFGVQQIQPNVISVRLFKRKVGGLGFLVKERVSKPPVIISDLIRGGAAEQSGLIQAGDIILAVNGRPLVDLSYDSALEVLRGIASETHVVLILRGPEGFTTHLETTFTGDGTPKTIRVTQPLGPPTKAVDLSHQPPAGKEQPLAVDGASGPGNGPQHAYDDGQEAGSLPHANGLAPRPPGQDPAKKATRVSLQGRGENNELLKEIEPVLSLLTSGSRGVKGGAPAKAEMKDMGIQVDRDLDGKSHKPLPLGVENDRVFNDLWGKGNVPVVLNNPYSEKEQPPTSGKQSPTKNGSPSKCPRFLKVKNWETEVVLTDTLHLKSTLETGCTEYICMGSIMHPSQHARRPEDVRTKGQLFPLAKEFIDQYYSSIKRFGSKAHMERLEEVNKEIDTTSTYQLKDTELIYGAKHAWRNASRCVGRIQWSKLQVFDARDCTTAHGMFNYICNHVKYATNKGNLRSAITIFPQRTDGKHDFRVWNSQLIRYAGYKQPDGSTLGDPANVQFTEICIQQGWKPPRGRFDVLPLLLQANGNDPELFQIPPELVLEVPIRHPKFEWFKDLGLKWYGLPAVSNMLLEIGGLEFSACPFSGWYMGTEIGVRDYCDNSRYNILEEVAKKMNLDMRKTSSLWKDQALVEINIAVLYSFQSDKVTIVDHHSATESFIKHMENEYRCRGGCPADWVWIVPPMSGSITPVFHQEMLNYRLTPSFEYQPDPWNTHVWKGTNGTPTKRRAIGFKKLAEAVKFSAKLMGQAMAKRVKATILYATETGKSQAYAKTLCEIFKHAFDAKVMSMEEYDIVHLEHETLVLVVTSTFGNGDPPENGEKFGCALMEMRHPNSVQEERKSYKVRFNSVSSYSDSQKSSGDGPDLRDNFESAGPLANVRFSVFGLGSRAYPHFCAFGHAVDTLLEELGGERILKMREGDELCGQEEAFRTWAKKVFKAACDVFCVGDDVNIEKANNSLISNDRSWKRNKFRLTFVAEAPELTQGLSNVHKKRVSAARLLSRQNLQSPKSSRSTIFVRLHTNGSQELQYQPGDHLGVFPGNHEDLVNALIERLEDAPPVNQMVKVELLEERNTALGVISNWTDELRLPPCTIFQAFKYYLDITTPPTPLQLQQFASLATSEKEKQRLLVLSKGLQEYEEWKWGKNPTIVEVLEEFPSIQMPATLLLTQLSLLQPRYYSISSSPDMYPDEVHLTVAIVSYRTRDGEGPIHHGVCSSWLNRIQADELVPCFVRGAPSFHLPRNPQVPCILVGPGTGIAPFRSFWQQRQFDIQHKGMNPCPMVLVFGCRQSKIDHIYREETLQAKNKGVFRELYTAYSREPDKPKKYVQDILQEQLAESVYRALKEQGGHIYVCGDVTMAADVLKAIQRIMTQQGKLSAEDAGVFISRMRDDNRYHEDIFGVTLRTYEVTNRLRSESIAFIEESKKDTDEVFSS
- interdomain electron transfer FMN to heme in absence of CaM ([4]; absence of CaM, ref [51]): No such redox event was observed
- rate of electron transfer to heme from FMN [4]: 40 to 50 s⁻¹

B2: murine iNOS: murine inducible NOS (protein, UniProt P29477 1-1144, looked up)
Nitric oxide synthase, …: MACPWKFLFKVKSYQSDLKEEKDINNNVKKTPCAVLSPTIQDDPKSHQNGSPQLLTGTAQNVPESLDKLHVTSTRPQYVRIKNWGSGEILHDTLHHKATSDFTCKSKSCLGSIMNPKSLTRGPRDKPTPLEELLPHAIEFINQYYGSFKEAKIEEHLARLEAVTKEIETTGTYQLTLDELIFATKMAWRNAPRCIGRIQWSNLQVFDARNCSTAQEMFQHICRHILYATNNGNIRSAITVFPQRSDGKHDFRLWNSQLIRYAGYQMPDGTIRGDAATLEFTQLCIDLGWKPRYGRFDVLPLVLQADGQDPEVFEIPPDLVLEVTMEHPKYEWFQELGLKWYALPAVANMLLEVGGLEFPACPFNGWYMGTEIGVRDFCDTQRYNILEEVGRRMGLETHTLASLWKDRAVTEINVAVLHSFQKQNVTIMDHHTASESFMKHMQNEYRARGGCPADWIWLVPPVSGSITPVFHQEMLNYVLSPFYYYQIEPWKTHIWQNEKLRPRRREIRFRVLVKVVFFASMLMRKVMASRVRATVLFATETGKSEALARDLATLFSYAFNTKVVCMDQYKASTLEEEQLLLVVTSTFGNGDCPSNGQTLKKSLFMLRELNHTFRYAVFGLGSSMYPQFCAFAHDIDQKLSHLGASQLAPTGEGDELSGQEDAFRSWAVQTFRAACETFDVRSKHHIQIPKRFTSNATWEPQQYRLIQSPEPLDLNRALSSIHAKNVFTMRLKSQQNLQSEKSSRTTLLVQLTFEGSRGPSYLPGEHLGIFPGNQTALVQGILERVVDCPTPHQTVCLEVLDESGSYWVKDKRLPPCSLSQALTYFLDITTPPTQLQLHKLARFATDETDRQRLEALCQPSEYNDWKFSNNPTFLEVLEEFPSLHVPAAFLLSQLPILKPRYYSISSSQDHTPSEVHLTVAVVTYRTRDGQGPLHHGVCSTWIRNLKPQDPVPCFVRSVSGFQLPEDPSQPCILIGPGTGIAPFRSFWQQRLHDSQHKGLKGGRMSLVFGCRHPEEDHLYQEEMQEMVRKRVLFQVHTGYSRLPGKPKVYVQDILQKQLANEVLSVLHGEQGHLYICGDVRMARDVATTLKKLVATKLNLSEEQVEDYFFQLKSQKRYHEDIFGAVFSYGAKKGSALEEPKATRL
- interdomain electron transfer FMN to heme [4]: 35 s⁻¹
